From US20070265301A1, “Dpp-IV Inhibitors” (priority 2004, published 2007)
pIC50: −log10 of the molar value. Structures can show the parent of a compound that is named as a salt.

The molecules below were run against T1, DPP-IV (Homo sapiens, UniProt P27487) (assay: Continuous fluorimetric assay of DPP-IV peptidase activity (Gly-Pro-AMC cleavage)). Conditions: 50 pM DPP-IV, 16 μM Gly-Pro-AMC, pH 7.4, 25° C., 1% DMSO; values grouped in 3 classes; read-out: IC50 for inhibition of DPP-IV peptidase activity.
T1 construct: Soluble human DPP-IV lacking the transmembrane anchor (Gly31-Pro766); Pre-Pro-alpha-mating factor leader (secretion signal) (N, cleaved yes); made in house
Type: biochemical
Description: Inhibition of DPP-IV peptidase activity was monitored with a continuous fluorimetric assay. This assay is based on the cleavage of the substrate Gly-Pro-AMC (Bachem) by DPP-IV, releasing free AMC. The assay is carried out in 96-well microtiterplates. In a total volume of 100 μL, compounds are preincubated with 50 pM DPP-IV employing a buffer containing 10 mM Hepes, 150 mM NaCl, 0.005% Tween 20 (pH 7.4). The reaction is started by the addition of 16 μM substrate and the fluorescence of liberated AMC is detected for 10 minutes at 25° C. with a fluorescence reader (BMG-Fluostar; BMG-Technologies) using an excitation wavelength of 370 nm and an emission wavelength of 450 nm. The final concentration of DMSO is 1%. The inhibitory potential of the compounds were determined.
Soluble human DPP-IV lacking the transmembrane anchor (Gly31-Pro766) was expressed in a recombinant YEAST-strain as Pre-Pro-alpha-mating fusion. The secreted product (rhuDPP-IV-Gly31-Pro766) was purified from fermentation broth (>90% purity).
In the table are listed the IC50 values for inhibition of DPP-IV peptidase activity determined in assays as described above.

T1 sequence (P27487 31-766): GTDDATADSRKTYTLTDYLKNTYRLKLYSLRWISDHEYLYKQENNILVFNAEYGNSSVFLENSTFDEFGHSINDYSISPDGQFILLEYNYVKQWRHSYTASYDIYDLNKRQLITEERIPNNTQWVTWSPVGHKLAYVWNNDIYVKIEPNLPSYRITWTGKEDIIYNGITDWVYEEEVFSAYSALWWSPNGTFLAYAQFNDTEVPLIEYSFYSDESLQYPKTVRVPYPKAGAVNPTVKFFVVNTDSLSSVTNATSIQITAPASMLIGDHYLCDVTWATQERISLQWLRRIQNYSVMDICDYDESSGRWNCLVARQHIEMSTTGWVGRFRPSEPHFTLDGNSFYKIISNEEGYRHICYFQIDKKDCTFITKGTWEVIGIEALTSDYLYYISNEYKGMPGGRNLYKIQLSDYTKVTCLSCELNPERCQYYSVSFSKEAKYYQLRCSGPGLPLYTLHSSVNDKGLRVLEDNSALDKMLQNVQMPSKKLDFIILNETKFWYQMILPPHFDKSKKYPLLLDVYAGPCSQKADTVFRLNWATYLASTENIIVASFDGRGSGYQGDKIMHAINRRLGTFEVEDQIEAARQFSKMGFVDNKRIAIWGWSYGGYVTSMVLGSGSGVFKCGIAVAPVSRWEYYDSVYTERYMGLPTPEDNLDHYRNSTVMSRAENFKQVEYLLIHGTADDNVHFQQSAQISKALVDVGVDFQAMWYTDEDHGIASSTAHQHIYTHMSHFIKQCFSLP

pIC50 | Compound
5.70 to 6.00 | N[C@@H](CC(=O)N1c2ccccc2CC1COCc1ccccc1)Cc1ccccc1F (mixture of isomers) [Example 13, (3R)-3-Amino-1-benzyloxymethyl-2,3-dihydro-indo-1-yl)-4-(2-fluorophenyl)-butan-1-one trifluoroacetate salt]
6.00 to 7.00 | N[C@@H](CC(=O)N1Cc2ccccc2C[C@H]1CNC(=O)C1CC1)Cc1ccccc1F [Example 1, Cyclopropanecarboxylic acid {2-[(3R)-3-amino-4-(2-fluoro-phenyl)-butyryl]-1,2,3,4-tetrahydro-isoquinolin-(3S)-3-ylmethyl]-amide, trifluoroacetate salt]
6.00 to 7.00 | N[C@@H](CC(=O)N1Cc2ccccc2C[C@H]1CNC(=O)C1(O)CC1)Cc1ccccc1F [Example 2, 1-Hydroxy-cyclopropanecarboxylic acid {2-[(3R)-3-amino-4-(2-fluoro-phenyl)-butyryl]-1,2,3,4-tetrahydro-isoquinolin-(3S)-3-ylmethyl}-amide, trifluoroacetate salt]
≥ 7.00 | CS(=O)(=O)NC[C@@H]1Cc2ccccc2CN1C(=O)C[C@H](N)Cc1ccccc1F [Example 8, N-{2-[(3R)-3-Amino-4-[2-fluoro-phenyl)-butyryl]-1,2,3,4-tetrahydro-isoquinolin-(3S)-3-ylmethyl}-methanesulfonamide, trifluoroacetate salt]
≥ 7.00 | N[C@@H](CC(=O)N1Cc2ccccc2C[C@H]1COc1cccc(F)c1)Cc1ccccc1F [Example 12, trifluoroacetate salt]

Second part, the molecule before the results:

Compound | pIC50
NC(CC(=O)N1Cc2ccccc2C[C@H]1CNS(=O)(=O)C1CC1)Cc1cc(F)ccc1F (mixture of isomers) [Example 11, Cyclopropanesulfonic acid {2-[(3-amino-4-(2,5-difluoro-phenyl)-butyryl]-1,2,3,4-tetrahydro-isoquinolin-(3S)-3-ylmethyl}-amide, trifluoroacetate salt] | ≥ 7.00
N[C@@H](CC(=O)N1Cc2ccccc2C[C@H]1CNC(=O)CO)Cc1ccccc1F [Example 3, N-{2-[(3R)-3-Amino-4-(2-fluoro-phenyl)-butyryl-1,2,3,4-tetrahydroisoquinolin-(3S)-3-ylmethyl}-2-hydroxy-acetamide, trifluoroacetate salt] | 6.00 to 7.00
N[C@@H](CC(=O)N1Cc2ccccc2C[C@H]1CNC(=O)c1ccccc1)Cc1ccccc1F [Example 4, N-{2-[(3R)-3-Amino-4-(2-fluoro-phenyl)-butyryl}-1,2,3,4-tetrahydro-isoquinolin-(3S)-3-ylmethyl}-benzamide, trifluoroacetate salt] | ≥ 7.00
Cc1cc(C(=O)NC[C@@H]2Cc3ccccc3CN2C(=O)C[C@H](N)Cc2ccccc2F)no1 [Example 5, 5-Methyl-isoxazole-3-carboxylic acid-{2-[(3R)-3-amino-4-(2-fluoro-phenyl)-butyryl]-1,2,3,4-tetrahydro-isoquinolin-(3S)-3-ylmethyl}-amide, trifluoroacetate salt] | ≥ 7.00
Nc1nc(C(=O)NC[C@@H]2Cc3ccccc3CN2C(=O)C[C@H](N)Cc2ccccc2F)n[nH]1 [Example 6, 5-Amino-1H-[1,2,4]triazole-3-carboxylic acid-{2-[(3R)-3-amino-4-(2-fluoro-phenyl)-butyryl]-1,2,3,4-tetrahydro-isoquinolin-(3S)-3-ylmethyl-amide, trifluoroacetate salt] | ≥ 7.00
CN(C)C[C@@H]1Cc2ccccc2CN1C(=O)C[C@H](N)Cc1ccccc1F [Example 7, (3R)-3-Amino-1-(3S)-3-(3-dimethylaminomethyl-3,4-dihydro-1H-isoquinolin-2-yl)-4-(2-fluorophenyl)-butan-1-one, trifluoroacetate salt] | 5.70 to 6.00
N[C@@H](CC(=O)N1Cc2ccccc2C[C@H]1CNS(=O)(=O)C1CC1)Cc1ccccc1F [Example 9, Cyclopropanesulfonic acid {2-[(3R)-3-amino-4-(2-fluoro-phenyl)-butyryl]-1,2,3,4-tetrahydro-isoquinolin-(3S)-3-ylmethyl-amide, trifluoroacetate salt] | ≥ 7.00
N[C@@H](CC(=O)N1Cc2ccccc2C[C@H]1CNS(=O)(=O)C1CC1)Cc1cccc(Cl)c1 [Example 10, Cyclopropanesulfonic acid {2-[(3R)-3-amino-4-(3-chloro-phenyl)-butyryl]-1,2,3,4-tetrahydro-isoquinolin-(3S)-3-ylmethyl]-amide, trifluoroacetate salt] | ≥ 7.00
N[C@@H](CC(=O)N1Cc2ccccc2CC1COCc1ccccc1)Cc1ccccc1F (stereo partly drawn) [Example 14, (3R)-3-Amino-1-benzyloxymethyl-3,4-dihydro-1H-isoquinolin-2-yl)-4-(2-fluorophenyl)-butan-1-one, trifluoroacetate salt] | ≥ 7.00
